Test results as given in patent US9573966B2, “Anti-cancer activity of novel bicyclic heterocycles” (Katholieke Universiteit Leuven, K.U.Leuven R&D, priority 2010, dated 2017).

Test system: HSB-2 cells
Test: Inhibition of HSB-2 leukemic cell line proliferation (WST-1)
Assay type: cell-based, human
Conditions: cytotoxicity on HSB-2 cells, two days incubation, WST-1 read-out
Method: HSB2 cell line, a human acute lymphoblastic leukemia (ATCC; CCL-120.1) cell line, was grown in RPMI-1640 medium (Lonza, Belgium) supplemented with 10% fetal calf serum (Hyclone, US) and antibiotics. Exponential growing phase cells were seed in flat bottom 96-well microplates (TTP, Switzerland) at 50000 cells per well in 220 μl of medium with compounds (in different concentrations) and incubated for two days at 37° C., 5% CO2. After incubation, 100 μl of supernatant were removed and 10 μl of WST-1 (Roche, Switzerland) were added. After 2 hour incubation at 37° C., 5% CO2, optical densities were measured at 450 nm. Proliferation is calculated with respect of control points (no compound and treatment with Triton X100 to have maximum and minimum proliferation data). The IC50 was determined from a graph with at least four points, each derived from the mean of at least 2 experiments. […] The results are shown in Table 1 for a number of compounds.

Compound | IC50 [µM] | IC50 (Homo sapiens, HSB2, 48 h) [µM]
Nc1nc(N2CCN(C(=O)COc3ccc(Br)cc3)CC2)c2nc(-c3ccc(F)cc3)sc2n1 [Example 235, 1-(4-(5-amino-2-(4-fluorophenyl)thiazolo[5,4-d]pyrimidin-7-yl)piperazin-1-yl)-2-(4-bromophenoxy)ethanone] | 0.55 | –
Nc1nc(N2CCN(C(=O)COc3ccc(Cl)cc3)CC2)c2nc(CCCc3ccc(F)cc3)sc2n1 [Example 290, 1-(4-(5-amino-2-(3-(4-fluorophenyl)propyl)thiazolo[5,4-d]pyrimidin-7-yl)piperazin-1-yl)-2-(4-chlorophenoxy)ethanone] | – | > 10
COc1ccc(OCC(=O)N2CCN(c3nc(N)nc4sc(CCc5ccc(OC)c(OC)c5)nc34)CC2)cc1 [Example 257, 1-(4-(5-amino-2-(3,4-dimethoxyphenethyl)thiazolo[5,4-d]pyrimidin-7-yl)piperazin-1-yl)-2-(4-methoxyphenoxy)ethanone] | – | > 10
Cc1ccc(CCc2nc3c(N4CCN(C(=O)COc5ccc(Br)cc5)CC4)nc(N)nc3s2)cc1 [Example 258, 1-(4-(5-amino-2-(4-methylphenethyl)thiazolo[5,4-d]pyrimidin-7-yl)piperazin-1-yl)-2-(4-bromophenoxy)ethanone] | – | > 10
Nc1nc(N2CCN(C(=O)COc3ccc(Cl)cc3)CC2)c2nc(-c3ccccc3)sc2n1 [Example 215, 1-(4-(5-amino-2-phenylthiazolo[5,4-d]pyrimidin-7-yl)piperazin-1-yl)-2-(4-chlorophenoxy)ethanone] | – | 0.24
Cc1ccc(-c2nc3c(N4CCN(C(=O)COc5ccc(Cl)cc5)CC4)nc(N)nc3s2)cc1 [Example 295, 1-(4-(5-amino-2-p-tolylthiazolo[5,4-d]pyrimidin-7-yl)piperazin-1-yl)-2-(4-chlorophenoxy)ethanone] | – | 0.23
COc1ccc(OCC(=O)N2CCN(c3nc(N)nc4sc(CCc5ccc(Br)cc5)nc34)CC2)cc1 [Example 298, 1-(4-(5-amino-2-(4-bromophenethyl)thiazolo[5,4-d]pyrimidin-7-yl)piperazin-1-yl)-2-(4-methoxyphenoxy)ethanone] | – | > 10
Nc1nc(N2CCN(C(=O)COc3ccc(F)cc3)CC2)c2cc(-c3ccccc3)sc2n1 [Example 370, 1-(4-(2-amino-6-phenylthieno[2,3-d]pyrimidin-4-yl)piperazin-1-yl)-2-(4-fluorophenoxy)ethanone] | – | 6.38
Nc1nc(N2CCN(C(=O)COc3ccc(Br)cc3)CC2)c2nc(Cc3ccc(F)cc3)sc2n1 [Example 231, 1-(4-(5-amino-2-(4-fluorobenzyl)thiazolo[5,4-d]pyrimidin-7-yl)piperazin-1-yl)-2-(4-bromophenoxy)ethanone] | – | 2.63
COc1ccc(OCC(=O)N2CCN(c3nc(N)nc4sc(-c5ccc(C)cc5)nc34)CC2)cc1 [Example 294, 1-(4-(5-amino-2-p-tolylthiazolo[5,4-d]pyrimidin-7-yl)piperazin-1-yl)-2-(4-methoxyphenoxy)ethanone] | – | 4.16
COc1ccc(OCC(=O)N2CCN(c3nc(N)nc4sc(CCCCc5ccc(F)cc5)nc34)CC2)cc1 [Example 293, 1-(4-(5-amino-2-(4-(4-fluorophenyl)butyl)thiazolo[5,4-d]pyrimidin-7-yl)piperazin-1-yl)-2-(4-methoxyphenoxy)ethanone] | – | 0.83
COC(=O)c1ccc(OCC(=O)N2CCN(c3nc(N)nc4sc(CCc5ccc(F)cc5)nc34)CC2)cc1 [Example 225, methyl 4-(2-(4-(5-amino-2-(4-fluorophenethyl)thiazolo[5,4-d]pyrimidin-7-yl)piperazin-1-yl)-2-oxoethoxy)benzoate] | – | > 10
COc1ccc(OCC(=O)N2CCN(c3nc(N)nc4sc(CCCc5ccc(F)cc5)nc34)CC2)cc1 [Example 291, 1-(4-(5-amino-2-(3-(4-fluorophenyl)propyl)thiazolo[5,4-d]pyrimidin-7-yl)piperazin-1-yl)-2-(4-methoxyphenoxy)ethanone] | – | > 10
Nc1nc(N2CCN(C(=O)COc3ccc(Cl)cc3)CC2)c2nc(CCc3ccc(Br)cc3)sc2n1 [Example 299, 1-(4-(5-amino-2-(4-bromophenethyl)thiazolo[5,4-d]pyrimidin-7-yl)piperazin-1-yl)-2-(4-chlorophenoxy)ethanone] | – | 3.72
O=C(COc1ccc(Cl)cc1)N1CCN(c2ncnc3sc(-c4ccc(F)cc4)nc23)CC1 [Example 301, 1-(4-(2-(4-fluorophenyl)thiazolo[5,4-d]pyrimidin-7-yl)piperazin-1-yl)-2-(4-chlorophenoxy)ethanone] | – | 2.06
COc1cccc(CCc2nc3c(N4CCN(C(=O)COc5ccc(Br)cc5)CC4)nc(N)nc3s2)c1 [Example 254, 1-(4-(5-amino-2-(3-methoxyphenethyl)thiazolo[5,4-d]pyrimidin-7-yl)piperazin-1-yl)-2-(4-bromophenoxy)ethanone] | – | > 10
COc1ccc(CCc2nc3c(N4CCN(C(=O)COc5ccc(Br)cc5)CC4)nc(N)nc3s2)cc1OC [Example 256, 1-(4-(5-amino-2-(3,4-dimethoxyphenethyl)thiazolo[5,4-d]pyrimidin-7-yl)piperazin-1-yl)-2-(4-bromophenoxy)ethanone] | – | > 10
Nc1nc(N2CCN(C(=O)COc3ccc(F)cc3)CC2)c2nc(-c3ccc(F)cc3)sc2n1 [Example 233, 1-(4-(5-amino-2-(4-fluorophenyl)thiazolo[5,4-d]pyrimidin-7-yl)piperazin-1-yl)-2-(4-fluorophenoxy)ethanone] | – | > 10
COc1ccc(OCC(=O)N2CCN(c3nc(N)nc4sc(CCc5cccc(OC)c5)nc34)CC2)cc1 [Example 253, 1-(4-(5-amino-2-(3-methoxyphenethyl)thiazolo[5,4-d]pyrimidin-7-yl)piperazin-1-yl)-2-(4-methoxyphenoxy)ethanone] | – | 4.99
COc1ccc(OCC(=O)N2CCN(c3nc(N)nc4sc(-c5ccc(F)cc5)nc34)CC2)cc1 [Example 234, 1-(4-(5-amino-2-(4-fluorophenyl)thiazolo[5,4-d]pyrimidin-7-yl)piperazin-1-yl)-2-(4-methoxyphenoxy)ethanone] | – | 0.2
Nc1nc(N2CCN(C(=O)COc3ccc(O)cc3)CC2)c2nc(CCc3ccc(F)cc3)sc2n1 [Example 224, 1-(4-(5-amino-2-(4-fluorophenethyl)thiazolo[5,4-d]pyrimidin-7-yl)piperazin-1-yl)-2-(4-hydroxyphenoxy)ethanone] | – | 3.94
COc1cccc(CCc2nc3c(N4CCN(C(=O)COc5ccc(Cl)cc5)CC4)nc(N)nc3s2)c1 [Example 255, 1-(4-(5-amino-2-(3-methoxyphenethyl)thiazolo[5,4-d]pyrimidin-7-yl)piperazin-1-yl)-2-(4-chlorophenoxy)ethanone] | – | 2.1
Nc1nc(N2CCN(C(=O)COc3ccc(OC(F)(F)F)cc3)CC2)c2nc(CCc3ccc(F)cc3)sc2n1 [Example 226, 1-(4-(5-amino-2-(4-fluorophenethyl)thiazolo[5,4-d]pyrimidin-7-yl)piperazin-1-yl)-2-(4-(trifluoromethoxy)phenoxy)ethanone] | – | > 10
COc1ccc(OCC(=O)N2CCN(c3nc(N)nc4sc(CCc5ccc(C)cc5)nc34)CC2)cc1 [Example 259, 1-(4-(5-amino-2-(4-methylphenethyl)thiazolo[5,4-d]pyrimidin-7-yl)piperazin-1-yl)-2-(4-methoxyphenoxy)ethanone] | – | 3
Nc1nc(N2CCN(C(=O)COc3ccc(Cl)cc3)CC2)c2nc(CCCCc3ccc(F)cc3)sc2n1 [Example 292, 1-(4-(5-amino-2-(4-(4-fluorophenyl)butyl)thiazolo[5,4-d]pyrimidin-7-yl)piperazin-1-yl)-2-(4-chlorophenoxy)ethanone] | – | 9.79
CC(=O)c1ccc(OCC(=O)N2CCN(c3nc(N)nc4sc(CCc5ccc(F)cc5)nc34)CC2)cc1 [Example 227, 2-(4-acetylphenoxy)-1-(4-(5-amino-2-(4-fluorophenethyl)thiazolo[5,4-d]pyrimidin-7-yl)piperazin-1-yl)ethanone] | – | > 10
Cc1ccc(CCc2nc3c(N4CCN(C(=O)COc5ccc(Cl)cc5)CC4)nc(N)nc3s2)cc1 [Example 260, 1-(4-(5-amino-2-(4-methylphenethyl)thiazolo[5,4-d]pyrimidin-7-yl)piperazin-1-yl)-2-(4-chlorophenoxy)ethanone] | – | 4.49
Nc1nc(N2CCN(C(=O)COc3ccc(Br)cc3)CC2)c2cc(-c3ccccc3)sc2n1 [Example 372, 1-(4-(2-amino-6-phenylthieno[2,3-d]pyrimidin-4-yl)piperazin-1-yl)-2-(4-bromophenoxy)ethanone] | – | 9.87
Nc1nc(N2CCN(C(=O)COc3cccc(Cl)c3)CC2)c2nc(CCc3ccc(F)cc3)sc2n1 [Example 228, 1-(4-(5-amino-2-(4-fluorophenethyl)thiazolo[5,4-d]pyrimidin-7-yl)piperazin-1-yl)-2-(3-chlorophenoxy)ethanone] | – | > 10
COc1ccc(OCC(=O)N2CCN(c3nc(N)nc4sc(Cc5ccc(F)cc5)nc34)CC2)cc1 [Example 230, 1-(4-(5-amino-2-(4-fluorobenzyl)thiazolo[5,4-d]pyrimidin-7-yl)piperazin-1-yl)-2-(4-methoxyphenoxy)ethanone] | – | 2.21
